According to patent US20070004634A1 (Novo Nordisk A/S, priority 1998, published 2007):
Residues, ends and D or L forms follow the SMILES beside them. No end group written: not given here.

How the values were obtained:
[1] = system: free fat cells (adipocytes); assay: Adipocyte / free fat cell (FFC) assay, 3H glucose incorporation into lipid
Protocol: Incorporation of ^3H into the lipid phase was determined by partitioning of lipid phase into a scintillant mixture, which excludes water-soluble ^3H products.

[2] = molecular target: IGF-1R (Homo sapiens, UniProt P08069); assay: Phage ELISA, binding of phage clones to IGF-1R (ratio over background); conditions: ratio of IGF-1R divided by ratio of IR
Protocol: (§1) HIT indicates binder; CAND indicates binder candidate; LDH indicates binding to lactate dehydrogenase (negative control); Sp/Irr indicates the ratio of specific binding over non-specific binding.
(§2) Sp/Irr=the ratio of specific binding over non-specific binding; LDH=lactate dehydrogenase (negative control).
(§3) For phage pools, cells from frozen stocks were grown and phage were prepared as described above. For analysis of individual clones, colonies were picked and phage prepared as described above. Subsequent steps were the same for pooled and clonal phage. Microtiter wells were coated and blocked as described above. […] Phage resuspended in MPBS (PBS containing 2% non-fat milk) were added to wells (100 μl/well) and incubated at room temperature for 1 h. The phage solution was then removed, and the wells were washed three times with PBS at room temperature.
(§4) Anti-M13 antibody conjugated to horseradish peroxidase (Pharmacia Biotech) was diluted 1:3000 in MPBS and added to each well (100 μl/well). Incubation was for another hour at room temperature, followed by PBS washes as described. Color was developed by addition of ABTS solution (100 μl/well; Boehringer). […] Data points were averaged after subtraction of appropriate blanks. A clone was considered “positive” if the A405 of the well was ≧2-fold over background.

[3] = molecular target: IR (Homo sapiens, UniProt P06213); assay: Phage ELISA, binding of phage clones to IR (ratio over background); conditions: ratio of IR divided by ratio of IGF-1R
Protocol: as §1, §2, §3, §4

[4] = FFC assay potency grade, 0, + to ++++++, −
[5] = free fat cell assay potency class, Table 7

Compound | Comparisons IGF-1R/IR [2] | Comparisons IR/IGF-1R [3] | other results
CC(C)[C@H](NC(=O)[C@H](Cc1ccccc1)NC(=O)[C@H](Cc1c[nH]c2ccccc12)NC(=O)[C@H](CC(=O)O)NC(=O)[C@H](Cc1ccc(O)cc1)NC(=O)[C@H](Cc1ccccc1)NC(=O)[C@H](CC(N)=O)NC(=O)[C@H](CCC(=O)O)NC(=O)[C@H](Cc1c[nH]cn1)NC(=O)[C@@H](N)Cc1ccccc1)C(=O)N[C@@H](CCCNC(=N)N)C(=O)N[C@@H](CCC(N)=O)C(=O)N[C@H](C(=O)N[C@@H](CO)C(=O)N[C@@H](CCCCN)C(=O)N[C@@H](CCCCN)C(=O)NCCCC[C@H](NC(=O)[C@H](CCCCN)NC(=O)[C@H](CCCCN)NC(=O)[C@H](CO)NC(=O)[C@@H](NC(=O)[C@H](CCC(N)=O)NC(=O)[C@H](CCCNC(=N)N)NC(=O)[C@@H](NC(=O)[C@H](Cc1ccccc1)NC(=O)[C@H](Cc1c[nH]c2ccccc12)NC(=O)[C@H](CC(=O)O)NC(=O)[C@H](Cc1ccc(O)cc1)NC(=O)[C@H](Cc1ccccc1)NC(=O)[C@H](CC(N)=O)NC(=O)[C@H](CCC(=O)O)NC(=O)[C@H](Cc1c[nH]cn1)NC(=O)[C@@H](N)Cc1ccccc1)C(C)C)C(C)C)C(=O)O)C(C)C [Peptide S145] | – | – | FFC [1, 4]: ++
ESFYDWFERQ [Peptide S400] | – | – | FFC ([1]; Table 6, free fat cell assay): 0; FFC [1, 5]: 0
(ESFYDWFERQLGK)2-23 [Peptide S415] | – | – | activity in the free fat cell (FFC) assay / at IR, in words [1]: highly potent
CC[C@@H](C)[C@@H](NC(=O)[C@H](CCC(=O)O)NC(=O)[C@H](CC(=O)O)NC(=O)[C@H](Cc1ccccc1)NC(=O)[C@H](Cc1c[nH]c2ccccc12)NC(=O)[C@H](CCC(=O)O)NC(=O)[C@H](Cc1ccc(O)cc1)NC(=O)[C@H](Cc1ccccc1)NC(=O)[C@H](CCC(=O)O)NC(=O)[C@H](CCCCN)NC(=O)[C@H](CC(N)=O)NC(=O)[C@H](CC(N)=O)NC(=O)[C@@H](N)CCCCN)C(=O)NCC(=O)N[C@H](CCC(N)=O)C(=O)O [Peptide S320] (HELM PEPTIDE1{K.N.N.K.E.F.Y.E.W.F.D.E.[dI].G.[dQ]}$$$$V2.0; N-terminus and C-terminus assumed) | – | – | FFC [1, 4]: 0
MADYKDDDDKWLDQEWAWVQCEVYGRGCPSGGSGGSGSLDESFYDWFERQLGKKAAA(ETAG)PG [Peptide 539] | – | – | activity in the free fat cell (FFC) assay / at IR, in words [1]: full agonist
GSLDESFYDWFERQLG [Peptide S386] | – | – | FFC [1, 4]: +
GSLDESFYDWFERQ [Peptide S394] | – | – | activity in the free fat cell (FFC) assay / at IR, in words [1]: potency similar to full-length RP9 monomer peptides; FFC [1, 5]: +
CMM.DGFYAGLGCLLTAGEGR (CMMXDGFYAGLGCLLTAGEGR; not fully specified; printed as CMM.DGFYAGLGCLLTAGEGR; X: residue not identified in the source; cysteine pairing not given here) [20E2B-3-C11-IGFR] | 7.5 | 0.1 | –
VATSQGFYSGLSELLQGGGNV [20E2B-3-E12-IGFR] | 7.3 | 0.1 | –
RGMKEEVLVGGSTDPFYHKLSELLQGS [B6Hα-3-F11-IR] | 11.7 | 0.1 | –
AVRATRFDEAFYDWFVRQISDGQGNK [H2CA-4-F6-IGFR] | 6.4 | 0.2 | –
SGAKVIVVTGDSGDPFYHKLSELLQGS [B6Hα-2-C10-IR] | 5.3 | 0.2 | –
GRTMAVMAAGGPDDPFYHKLSELVQGG [Peptide B6Hα-2-D6-IR] | 4.4 | 0.2 | –
SSETAKMVTGTRDDPFYHKLSELVQGS [Peptide B6Hα-D8-IR] | 3.0 | 0.3 | –
QPAPDGFYSALMKLIGRGGVS [20E2B-3-C8-IGFR] | 8.9 | 0.1 | –
LSVALSFYDALGQLVAGEGRW [20E2A-3-A12-IGFR] | 3.9 | 0.3 | –
DSVGDNFYQLLESLVGGHGVG [20E2B-3-D6-IGFR] | 6.9 | 0.1 | –
VGYQGQGDENFYDWFIRQVSGRLGVQ [H2CA-4-F5-IGFR] | 12.3 | 0.1 | –
SSCDGAGHESFYEWFVRQVSGCRSV [H2CA-3-C8-IGFR] | 4.8 | 0.2 | –
RQGTGSFYLMLEQLLVGARGP [20E2B-4-G11-IGFR] | 7.0 | 0.1 | –
LGVTDGFYAALGYLIHGVGQF [20E2B-3-D11-IGFR] | 7.6 | 0.1 | –
TSEVQRRSQDNFYDWFVAQVA [Peptide A6S-3-E2-IR] | 2.5 | 0.4 | –
SRAKVEAEMPDSGDPFYHKLSELLASG [Peptide B6Hα-1-A3-IR] | 3.3 | 0.3 | –
QGNVLDFYGWIGRLLAKQGSD [20E2B-3-D12-IGFR] | 7.3 | 0.1 | –

Compound | Comparisons IGF-1R/IR [2] | Comparisons IR/IGF-1R [3] | other results
PVGVQGFYEGLSRLVLGRGGW [20E2B-4-F8-IGFR] | 9.7 | 0.1 | –
CC(C)[C@H](NC(=O)[C@H](Cc1ccccc1)NC(=O)[C@H](Cc1c[nH]c2ccccc12)NC(=O)[C@H](CC(=O)O)NC(=O)[C@H](Cc1ccc(O)cc1)NC(=O)[C@H](Cc1ccccc1)NC(=O)[C@H](CC(N)=O)NC(=O)[C@H](CCC(=O)O)NC(=O)[C@H](Cc1c[nH]cn1)NC(=O)[C@H](Cc1ccccc1)NC(=O)[C@@H](N)CNC(=O)CON=CCCCCCCC=NOCC(=O)NC[C@H](N)C(=O)N[C@@H](Cc1ccccc1)C(=O)N[C@@H](Cc1c[nH]cn1)C(=O)N[C@@H](CCC(=O)O)C(=O)N[C@@H](CC(N)=O)C(=O)N[C@@H](Cc1ccccc1)C(=O)N[C@@H](Cc1ccc(O)cc1)C(=O)N[C@@H](CC(=O)O)C(=O)N[C@@H](Cc1c[nH]c2ccccc12)C(=O)N[C@@H](Cc1ccccc1)C(=O)N[C@H](C(=O)N[C@@H](CCCNC(=N)N)C(=O)N[C@@H](CCC(N)=O)C(=O)N[C@H](C(=O)N[C@@H](CO)C(=O)N[C@@H](CCCCN)C(=O)N[C@@H](CCCCN)C(N)=O)C(C)C)C(C)C)C(=O)N[C@@H](CCCNC(=N)N)C(=O)N[C@@H](CCC(N)=O)C(=O)N[C@H](C(=O)N[C@@H](CO)C(=O)N[C@@H](CCCCN)C(=O)N[C@@H](CCCCN)C(N)=O)C(C)C [Peptide S172] | – | – | FFC [1, 4]: +++
TLDGGSFEEQFYDWFVRQLSYRTNPD [H2CA-4-G11-IGFR] | 3.9 | 0.3 | –
AETSVQVGWIRLQSVWPGEHWNTVDPFYHKLSELLRGSGA [Peptide B6L-4-D7-IR] | 3.4 | 0.3 | –
AICDAGFHEHFYDWFALQVSDCGRQS [H2CA-2-B11-IGFR] | 3.0 | 0.3 | –
QSPVGSSHEDFYDWFFRQVAQSGAHQ [H2CA-3-D6-IGFR] | 4.0 | 0.3 | –
RGAVAGFHDQFYDWFDRQVSRVHKFG [H2CA-4-H9-IGFR] | 3.0 | 0.3 | –
GCAVVEEAERSRGDPFYHKLSELIQGC [Peptide B6Hα-3-E7-IR] | 4.3 | 0.2 | –
QGGSASFYDAIDRLLRMRIGG [20E2A-4-F11-IGFR] | 14.6 | 0.1 | –
ICTGQGFYQVLCGLLRGTSAR [20E2B-2-B3-IGFR] | 7.4 | 0.1 | –
QFYGCLLDLSLGVPSFGWRRRCITA [20C-3-A4-IGFR] | 7.6 | 0.1 | –
PPLASDLDVQFYGWFVQQVSPPGRGG [H2CA-2-B3-IGFR] | 3.6 | 0.3 | –
RFDPFYSYFVNLLGASA [NNRPγ-4-A7-IR] | 4.9 | 0.2 | –
SSIGGGEHENFYDWFSRQLSQSPPLK [H2CA-4-F7-IGFR] | 4.1 | 0.2 | –
IIGGFYSYFNSVLRLGT [NNRPγ-4-A1-IR] | 6.0 | 0.2 | –
GHYFGSFYDAIDQLVAGMLPG [20E2A-3-A3-IGFR] | 1.9 | 0.5 | –
APDPSDFQEIFYDWFVRQVSRMPGGG [H2CA-1-A3-IGFR] | 5.1 | 0.2 | –
QPDHSYFYSLLQELVGSEERL [20E2B-4-F9-IGFR] | 7.7 | 0.1 | –
CGAKMTGTPNDPFYHKLSELLQRG [Peptide B6Hα-3-E6-IR] | 1.9 | 0.5 | –
GIISQSCPESFYDWFAGQVSDPWWCW [H2CA-4-G9-IGFR] | 16.0 | 0.1 | –
GVRAMSFYDALVSVLGLGPSG [20E2B-1-A6-IGFR] | 16.8 | 0.1 | –
IQQELTFYDLLHRLVRSELGS [20E2B-3-D2-IGFR] | 11.7 | 0.1 | –
HLADGQFHEKFYDWFERQISSRCNDC [H2CA-3-E11-IGFR] | 2.2 | 0.5 | –
LKDGFYDYFWQRLHLGS [NNRPγ-4-B11-IR] | 15.5 | 0.1 | –
